Experimental data: patent publication US20080306076A1, “MODULATION OF CHEMOSENSORY RECEPTORS AND LIGANDS ASSOCIATED THEREWITH” (SENOMYX, INC., priority 2007, published 2008)
Changes are numbered by the printed parent chain.

Columns and labels:
hT1R1 E301A = target: T1, hT1R1 E301A (Homo sapiens, UniProt Q7RTX1, E301A); assay: Mutagenesis study, hT1R1 mutant E301A; assay type: cell-based; conditions: E301 mutant, FIG. 11
T1 construct: expressed in transfected cells; host or cells: HEK293, transient transfection
T1 sequence (Q7RTX1 21-841 E301A): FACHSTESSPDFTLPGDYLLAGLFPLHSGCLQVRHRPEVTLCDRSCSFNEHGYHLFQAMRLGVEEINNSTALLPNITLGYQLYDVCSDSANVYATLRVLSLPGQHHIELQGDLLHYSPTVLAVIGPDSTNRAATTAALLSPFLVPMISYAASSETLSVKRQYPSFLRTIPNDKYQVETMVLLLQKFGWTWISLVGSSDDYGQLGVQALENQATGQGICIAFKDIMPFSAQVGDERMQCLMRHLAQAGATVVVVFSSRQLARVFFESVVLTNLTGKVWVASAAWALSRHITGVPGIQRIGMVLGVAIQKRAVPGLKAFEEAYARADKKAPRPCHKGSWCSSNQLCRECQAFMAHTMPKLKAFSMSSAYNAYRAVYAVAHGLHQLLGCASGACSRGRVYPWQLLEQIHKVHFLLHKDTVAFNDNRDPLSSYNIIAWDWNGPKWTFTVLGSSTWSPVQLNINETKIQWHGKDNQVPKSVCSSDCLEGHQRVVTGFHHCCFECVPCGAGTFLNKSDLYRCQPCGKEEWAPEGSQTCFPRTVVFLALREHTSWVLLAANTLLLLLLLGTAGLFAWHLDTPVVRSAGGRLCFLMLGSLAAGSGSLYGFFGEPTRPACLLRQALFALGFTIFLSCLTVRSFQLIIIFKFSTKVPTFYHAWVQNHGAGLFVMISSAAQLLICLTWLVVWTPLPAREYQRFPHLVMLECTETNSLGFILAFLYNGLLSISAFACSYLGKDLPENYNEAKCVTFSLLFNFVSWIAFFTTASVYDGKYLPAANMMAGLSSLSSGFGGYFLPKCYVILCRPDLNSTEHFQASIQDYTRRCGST
T1 sequence (Q923K1 21-858 partner): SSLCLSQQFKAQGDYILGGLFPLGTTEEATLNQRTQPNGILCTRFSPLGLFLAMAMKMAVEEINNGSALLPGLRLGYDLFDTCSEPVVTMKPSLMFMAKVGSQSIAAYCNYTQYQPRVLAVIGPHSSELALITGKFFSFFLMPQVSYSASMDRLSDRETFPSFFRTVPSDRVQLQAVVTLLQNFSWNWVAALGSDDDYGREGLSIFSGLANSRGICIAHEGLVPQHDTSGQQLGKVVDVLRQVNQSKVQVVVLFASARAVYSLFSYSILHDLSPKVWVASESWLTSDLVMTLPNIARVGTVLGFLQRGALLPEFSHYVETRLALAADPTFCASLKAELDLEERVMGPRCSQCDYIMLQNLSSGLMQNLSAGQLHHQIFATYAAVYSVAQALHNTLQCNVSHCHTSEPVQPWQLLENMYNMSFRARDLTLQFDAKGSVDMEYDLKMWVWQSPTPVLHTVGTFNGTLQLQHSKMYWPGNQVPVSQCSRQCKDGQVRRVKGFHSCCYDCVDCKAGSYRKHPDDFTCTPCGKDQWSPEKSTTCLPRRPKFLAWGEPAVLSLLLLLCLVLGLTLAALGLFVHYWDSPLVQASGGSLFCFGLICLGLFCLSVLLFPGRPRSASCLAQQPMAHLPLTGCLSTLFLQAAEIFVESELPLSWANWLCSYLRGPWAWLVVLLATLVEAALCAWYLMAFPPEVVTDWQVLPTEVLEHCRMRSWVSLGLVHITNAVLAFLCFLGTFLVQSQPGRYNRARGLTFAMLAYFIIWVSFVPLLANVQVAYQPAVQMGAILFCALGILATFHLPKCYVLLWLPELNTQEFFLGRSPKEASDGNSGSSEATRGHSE
Description: (§1) In order to further define the interaction sites of umami stimuli, we performed site-directed mutagenesis on human T1R1 VFT. The mutagenesis was done using the routine PCR-based method. […] were transiently transfected into HEK293 cell together with the rat T1R3 wild type cDNA, and the transfected cells were characterized using an automated FLIPR machine or a calcium imaging system as described in our previous patent applications.

hT1R1 T149S = target: T2, hT1R1 T149S (Homo sapiens, UniProt Q7RTX1, T149S); assay: Mutagenesis study, hT1R1 mutant T149S; assay type: cell-based; conditions: 0.25 mM of L-Glu, FIG. 12
T2 construct: expressed in transfected cells; host or cells: HEK293, transient transfection
T2 sequence (Q7RTX1 21-841 T149S): T1 sequence (Q7RTX1 21-841 E301A) with T129S, A281E
T2 sequence (Q923K1 21-858 partner): T1 sequence (Q923K1 21-858 partner)
Description: as §1

## N[C@@H](CCC(=O)O)C(=O)O [L-Glu, L-glutamate]
hT1R1 E301A
  activity against L-Glu: significant reduced activity
hT1R1 T149S
  activity against L-Glu compared to the wild type: increased activity
